According to paper PMC9325861, “Mouse precision-cut liver slices as an ex vivo model to study drug-induced cholestasis” (Archives of Toxicology, 2022):
Where a name gives a salt, the structure may show the parent alone. Read-outs that look alike come from different tables or passages of the source.

Columns and labels:
[1] = test system: Collagen type 1a1 (Col1a1); experiment: qRT-PCR gene expression in mouse PCLS: Col1a1; type: cell-based; settings: 48 h
Experimental: (§1) In short, freshly prepared PCLS were transferred to 12-well plates (Greiner bio-one GmbH, Austria), one slice per well. Each well was filled with 1.3 mL pre-heated (37 ℃) and oxygenated (80%) Williams Medium E (1X, glutaMAX-1), which had been supplemented with 25 mM D-glucose monohydrate and 50 μg/ml Gentamicin (denoted as WME GG). […] The DMSO concentration used was below 0.5% in the incubation medium, equivalent to DMSO concentrations in solutions prepared by dilution of BA stock solutions with WME GG.
(§2) Three PCLS incubated under a given condition were pooled in a 1.5-mL Rnase-free test tube, snap-frozen in liquid nitrogen, and stored at – 80 °C until analysis. RNA was isolated using a FavorPrep Tissue Total RNA Mini Kit (Favorgen, Vienna, Austria). Subsequently, the RNA yield was quantified using a NanoDrop One instrument (Thermo Fisher Scientific, Massachusetts, USA). Isolated RNA was reverse-transcribed to cDNA using a cDNA synthesis kit (Reverse Transcription System, Promega, Benelux B.V.). The cDNA samples were subsequently loaded in the thermal cycler with a program set to 22 °C for 10 min, 42 °C for 15 min, and 95 °C for 5 min.
(§3) qRT-PCR was used to determine the relative mRNA expression levels for the mouse target genes: Bsep (Abcb11), Mrp2 (Abcc2), Mrp3 (Abcc3), Mrp4 (Abcc4), Ntcp (Slc10a1), Fxr (Nr1h4), Cyp7a1 (Cyp7a1), Collagen type 1a1 (Col1a1), Hsp47 (Serpinh1). Primer sequences of the genes tested are given in Supplementary Table S1. QRT-PCR was performed using, the dye, FastStart Universal SYBR Green Master Mix (Roche Diagnostics Netherlands B.V., Almere, the Netherlands) with the ViiA™ 7 Real-Time PCR System (Applied Biosystems, Bleiswijk, the Netherlands). The first cycle constituted 10 min at 95 °C, followed by 40 cycles of 15 s at 95 °C, 30 s at 60 °C and 30 s at 72 °C, followed by 1 cycle dissociation stage (15 s: 95 °C, 60 °C and 95 °C). A minimum of four mouse livers was used for each experiment, using three PCLS per condition. Samples were measured in duplicates. […] Results are expressed as log2(fold change).

Hsp47 (Serpinh1) = experiment: qRT-PCR gene expression in mouse PCLS: Hsp47; type: cell-based; settings: 48 h, in the presence of BAs, highest concentration (30 µM CPZ)
Experimental: as §1
as §2, with “The cDNA samples were subsequently loaded in the thermal cycler with a program set to 22 °C for 10 min, 42 °C for 15 min, and 95 °C for 5 min.” left out
(§4) qRT-PCR was used to determine the relative mRNA expression levels for the mouse target genes: Bsep (Abcb11), Mrp2 (Abcc2), Mrp3 (Abcc3), Mrp4 (Abcc4), Ntcp (Slc10a1), Fxr (Nr1h4), Cyp7a1 (Cyp7a1), Collagen type 1a1 (Col1a1), Hsp47 (Serpinh1). […] Samples were measured in duplicates. […] Results are expressed as log2(fold change).

Bsep (Abcb11) = experiment: qRT-PCR gene expression in mouse PCLS: Bsep; type: cell-based; settings: 48 h
Experimental: (§5) In short, freshly prepared PCLS were transferred to 12-well plates (Greiner bio-one GmbH, Austria), one slice per well.
as §2, §3

Fxr (Nr1h4) = experiment: qRT-PCR gene expression in mouse PCLS: Fxr; type: cell-based; settings: 48 h, 30 µM CPZ in the presence of the humanized BA mixture
Experimental: as §1
as §2, with “The cDNA samples were subsequently loaded in the thermal cycler with a program set to 22 °C for 10 min, 42 °C for 15 min, and 95 °C for 5 min.” left out
as §4

Ntcp (Slc10a1) = experiment: qRT-PCR gene expression in mouse PCLS: Ntcp; type: cell-based; settings: 48 h
Experimental: as §1, §2, §3

mouse PCLS = experiment: Viability of mouse PCLS by ATP content (ATP bioluminescence, normalized to protein); type: cell-based; settings: for IC50 / CC50: Mus musculus; for IC 5% (best-fit) / IC 25% (best-fit): Table S3, unit not given; for Enhancement of drug toxicity by addition of the BA mixture: extra sum of squares F-test of fits with vs w/o BA
Experimental: as §1
ATP was extracted by homogenization, followed by the centrifugation of the homogenate (16,000g at 4 °C for 5 min). The supernatant was collected, and the pellet was left to dry. An ATP Bioluminescence Assay Kit (Roche Diagnostics, Mannheim, Germany) was used to determine ATP content in the supernatant. The dried pellet was used to determine the total protein content of the PCLS using the Bio-Rad DC Protein Assay (Bio-Rad, Munich, Germany). The obtained ATP values were then normalized for the total protein content of the slice.
A minimum of three mouse livers was used for each experiment, using PCLS in triplicate from each liver. GraphPad Prism 8.4.3 was used to perform statistical analysis, using a Student’s unpaired two-tailed T-test to compare two means, or a one-way ANOVA to compare multiple means. One-way ANOVA was followed by either Tukey’s multiple comparisons test to compare all means within a dataset, or Dunnett’s multiple comparisons test to compare all means with their own control mean. Nonlinear regression analysis was followed by an extra sum of squares F-test to compare two fits. mRNA expression levels are shown as Log2(fold induction) (− ΔΔCt), though the data was statistically analyzed using the cycle threshold (ΔCt) values. Differences between groups were considered significant when p < 0.05.

human PCLS = test system: human PCLS; design: method as in Vatakuti et al. [2017]; settings: 30 µM CPZ, without BA mixture, ref Vatakuti et al. [2017]; cited from earlier work
Mrp3 (Abcc3) = experiment: qRT-PCR gene expression in mouse PCLS: Mrp3; type: cell-based; settings: 48 h, in the presence and absence of BAs
Experimental: as §5, §2
as §3, with “The first cycle constituted 10 min at 95 °C, followed by 40 cycles of 15 s at 95 °C, 30 s at 60 °C and 30 s at 72 °C, followed by 1 cycle dissociation stage (15 s: 95 °C, 60 °C and 95 °C). A minimum of four mouse livers was used for each experiment, using three PCLS per condition.” left out

Mrp2 (Abcc2) = experiment: qRT-PCR gene expression in mouse PCLS: Mrp2; type: cell-based; settings: 48 h, in the presence and absence of BAs
Experimental: as §1
as §2, with “The cDNA samples were subsequently loaded in the thermal cycler with a program set to 22 °C for 10 min, 42 °C for 15 min, and 95 °C for 5 min.” left out
as §4

mouse Bsep protein = test system: mouse Bsep protein; design: method as in Noe et al. [2001]; settings: ref Noe et al. [2001]; cited from earlier work
[2] = test system: primary human hepatocytes; design: method as in Ogimura et al. [2017]; settings: in the presence of a BA mixture, ref Ogimura et al. [2017], read-out: Concentration with 50% toxicity; cited from earlier work
rat PCLS = test system: rat PCLS; design: method as in Starokozhko et al. [2017a]; settings: control 156.5, ref Starokozhko et al. [2017a]; cited from earlier work
MRP2 = test system: MRP2; design: method as in Pedersen et al. [2008]; Morgan et al. [2013]; settings: ref Pedersen et al. [2008]; Morgan et al. [2013]; cited from earlier work
[3] = BAs present, highest concentration of CPZ, lowest concentration of GB

Which results are given for `CN(C)CCCN1c2ccccc2Sc2ccc(Cl)cc21` [CPZ, Chlorpromazine hydrochloride]?
Col1a1 gene expression ([1]; in the absence of BAs, highest concentration of CPZ): significant increase; Col1a1 gene expression ([1]; in the presence of BAs, highest concentration (30 µM CPZ)): significantly increased; Hsp47 gene expression (Hsp47 (Serpinh1)): significantly increased; Bsep gene expression (Bsep (Abcb11); in the presence and absence of BAs, vs control without drug): reduces; Fxr gene expression (Fxr (Nr1h4)): small, but not significant, increase; Ntcp gene expression (Ntcp (Slc10a1); [3]): increase the expression of Ntcp significantly; IC50 (mouse PCLS; 48 h, read-out: IC 50% (best-fit), Table S3, mouse PCLS, 48 h, w/o BA, unit not printed in table (µM in Fig. 4)): 29.1 µM; IC50 (mouse PCLS; 48 h, read-out: IC 50% (best-fit), Table S3, mouse PCLS, 48 h, with BA, unit not printed in table (µM in Fig. 4)): 21.6 µM; IC50 (mouse PCLS; 48 h, read-out: IC50 (50% loss in viability, ATP content), mouse PCLS, 48 h, one value or range given for with and w/o BA): 22 to 29 µM; CC50 (mouse PCLS; 48 h, read-out: IC50 (50% loss in viability, ATP content), mouse PCLS, 48 h, w/o BA mixture): 29 µM; CC50 (mouse PCLS; 48 h, read-out: IC50 (50% loss in viability, ATP content), mouse PCLS, 48 h, with BA mixture): 22 µM; IC 5% (best-fit) (mouse PCLS; 5% decrease in ATP content, 48 h, w/o BA): 15.4; IC 5% (best-fit) (mouse PCLS; 5% decrease in ATP content, 48 h, with BA): 11.4; IC 25% (best-fit) (mouse PCLS; 25% decrease in ATP content, 48 h, w/o BA): 22.9; IC 25% (best-fit) (mouse PCLS; 25% decrease in ATP content, 48 h, with BA): 17.0; Enhancement of drug toxicity by addition of the BA mixture (mouse PCLS; mouse PCLS, 48 h): enhanced the toxicity of CPZ considerably; Decrease in ATP content (human PCLS): 40%; Mrp3 gene expression (Mrp3 (Abcc3)): reduces; Mrp2 gene expression (Mrp2 (Abcc2)): reduces

Which results are given for `COc1ccc(Cl)cc1C(=O)NCCc1ccc(S(=O)(=O)NC(=O)NC2CCCCC2)cc1` [GB, Glibenclamide]?
Inhibition of the mouse Bsep protein (mouse Bsep protein): competitively inhibit; Col1a1 gene expression ([1]; both with and without BAs present): reduced Col1a1 expression in a concentration-dependent manner; IC50 [2]: 103 µM; Bsep gene expression (Bsep (Abcb11); 25 µM GB, when BAs are present): increases; Bsep gene expression (Bsep (Abcb11); 65 μM GB, when BAs are present): decreases Bsep expression significantly; Intracellular GCA concentration after drug incubation (rat PCLS): 364.3 pmol/mg protein; Ntcp gene expression (Ntcp (Slc10a1); [3]): increase the expression of Ntcp significantly; Ntcp gene expression (Ntcp (Slc10a1); in the absence of BAs): decrease the Ntcp expression; IC50 (mouse PCLS; 48 h, read-out: IC50 (50% loss in viability, ATP content)): 70 µM; IC50 (mouse PCLS; read-out: IC 50% (best-fit)): 69.7 µM; IC 5% (best-fit) (mouse PCLS; IC the same with and w/o BA): 37.9; IC 25% (best-fit) (mouse PCLS; IC the same with and w/o BA): 55.5; Enhancement of drug toxicity by addition of the BA mixture (mouse PCLS; mouse PCLS, 48 h): not observed; Effect on MRP2 activity on a protein level (MRP2): stimulate MRP2 activity; Mrp2 gene expression (Mrp2 (Abcc2)): increases the expression of Mrp2
